Laboratory results as given in ChEMBL document CHEMBL1201862, “PubChem BioAssay data set” (2004).
Calls of active or inactive are those of the source. Cut-off read from the data, not from the text of the source: actives have a measured IC50 and inactives only a lower limit.

Target: Envelope glycoprotein gp160 (Human immunodeficiency virus 1, UniProt Q6QLK5)
Test: cell-free HIV fusion peptide-binding blockers – biochemical, uHTS, fluorescence dequenching, […] (AID 1986)

Chain of Envelope glycoprotein gp160 (Q6QLK5 whole entry, the tested form may be a part): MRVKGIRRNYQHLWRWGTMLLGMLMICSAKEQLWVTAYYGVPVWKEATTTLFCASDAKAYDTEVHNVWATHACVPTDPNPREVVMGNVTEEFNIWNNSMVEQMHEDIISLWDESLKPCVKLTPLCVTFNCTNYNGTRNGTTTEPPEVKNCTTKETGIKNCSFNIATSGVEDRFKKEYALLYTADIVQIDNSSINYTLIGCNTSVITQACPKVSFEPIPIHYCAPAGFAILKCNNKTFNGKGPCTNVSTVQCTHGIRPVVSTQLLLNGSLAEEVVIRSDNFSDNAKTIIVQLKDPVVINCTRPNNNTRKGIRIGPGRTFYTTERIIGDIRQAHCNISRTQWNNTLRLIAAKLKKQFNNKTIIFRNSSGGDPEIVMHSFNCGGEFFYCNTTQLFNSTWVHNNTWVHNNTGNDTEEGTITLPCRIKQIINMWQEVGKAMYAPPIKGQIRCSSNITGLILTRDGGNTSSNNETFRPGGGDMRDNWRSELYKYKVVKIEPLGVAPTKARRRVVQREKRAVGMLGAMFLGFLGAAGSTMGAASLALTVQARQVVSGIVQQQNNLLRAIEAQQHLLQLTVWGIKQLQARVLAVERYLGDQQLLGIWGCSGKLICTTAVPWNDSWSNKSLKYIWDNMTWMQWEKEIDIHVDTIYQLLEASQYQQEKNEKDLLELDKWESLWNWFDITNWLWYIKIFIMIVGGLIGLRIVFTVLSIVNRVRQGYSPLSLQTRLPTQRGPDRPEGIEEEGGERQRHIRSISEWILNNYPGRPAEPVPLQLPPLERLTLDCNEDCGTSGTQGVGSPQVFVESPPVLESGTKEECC

| Structure (SMILES) | IC50 |
| --- | --- |
| Cc1cccc(S(=O)(=O)Nc2nc3ccccc3nc2Nc2cccc(C(=O)O)c2)c1 | 29 µM (active) |
| O=C(O)c1[nH]c2ccccc2c1C(c1cccc(O)c1)c1c(C(=O)O)[nH]c2ccccc12 | 25.8 µM (active) |
